Source: patent US10894798B2, “Substituted dihydropyrrolopyrazole derivative” (UBE INDUSTRIES, LTD., priority 2015, dated 2021)

How the values were obtained:
CDK7 = target: T1, CDK7 (Homo sapiens, UniProt P50613); experiment: CDK7 enzyme inhibition test; type: biochemical; conditions: [γ-33P]ATP, MBP substrate, 60 min preincubation at 25°C; Ki=IC50/(1+S/Km); read-out: Ki value of CDK7 inhibitory activity
T1 construct: purchased Carna Biosciences, Inc. 04-108
Procedure: (§1) The preparation of a buffer solution was performed by mixing a N-2-hydroxyethylpiperazine-N′-2-ethanesulfonic acid buffer solution (HEPES buffer solution) (pH 7.4), dithiothreitol (DTT), Triton X-100, and magnesium chloride (MgCl2). A 500 μM [γ-^33P]ATP solution was used by diluting a 10 mM ATP solution and a commercially available [γ-^33P]ATP solution (manufactured by PerkinElmer, Inc., Code No. NEG-302H) with the buffer solution. A CDK7 solution was used by diluting commercially available CDK7 (manufactured by Carna Biosciences, Inc., Catalog No. 04-108) with the buffer solution. A substrate solution was used by diluting myelin basic protein (MBP) with the buffer solution. As for the preparation of a reaction solution, the buffer solution, the CDK7 solution, and the substrate solution were mixed at 4° C. to obtain a reaction solution.
CDK7 enzyme reaction was performed by adding 5 μL of a test compound solution prepared with 10% DMSO/90% injectable distilled water, and 40 μL of the reaction solution to a 1.5 mL microtube at 4° C. and preincubating the microtube at 25° C. for 60 minutes in a water bath incubator. Subsequently, reaction was performed at 30° C. for 20 minutes by adding 5 μL of the 500 μM [γ-^33P]ATP solution. After the reaction, a 10% aqueous trichloroacetic acid (TCA) solution was added to each microtube while cooled to 4° C., and mixed in a vortex mixer to terminate the reaction. The resultant was left standing at 4° C. for 10 minutes and then centrifuged, and the supernatant was discarded. Next, a 2% aqueous trichloroacetic acid (TCA) solution was added thereto, mixed in a vortex mixer, and then centrifuged, and the supernatant was discarded. This washing operation was performed twice. After the washing, precipitates were dissolved in a 1 N aqueous sodium hydroxide (NaOH) solution, and the energy quantity (radioactivity) of the reaction product was measured with a liquid scintillation counter.
The calculation of the inhibitory activity of the test compound against CDK7 was performed as a test compound concentration inhibiting 50% of the amount of ^33P bound to MBP (IC50 value) by using EXSUS (version 8.1.0, manufactured by CAC Exicare Corp.).
(§2) The calculation of a Ki value was performed according to the following calculation expression wherein S represents the concentration of ATP contained in the reaction solution, and Km represents a Michaelis-Menten constant: Ki=IC50/(1+S/Km)

CDK2 = target: T2, CDK2 (Homo sapiens, UniProt P24941); experiment: CDK2 enzyme inhibition test; type: biochemical; conditions: [γ-33P]ATP, MBP substrate; Ki=IC50/(1+S/Km); read-out: Ki value of CDK2 inhibitory activity
T2 construct: purchased Invitrogen Corp. PV3267
Procedure: as §1, with “by Perkin Elmer,” for “by PerkinElmer,”, “A CDK2” for “A CDK7”, “available CDK2” for “available CDK7”, “by Invitrogen Corp.,” for “by Carna Biosciences, Inc.,”, “No. PV3267)” for “No. 04-108)”, “the 500 μM [γ-^33P]ATP solution, the CDK2” for “the CDK7”
(§3) CDK2 enzyme reaction was performed by adding 5 μL of a test compound solution prepared with 10% DMSO/90% injectable distilled water, and 45 μL of the reaction solution in a 1.5 mL microtube at 4° C. and reacting in the microtube at 30° C. for 20 minutes in a water bath incubator. After the reaction, a 10% aqueous trichloroacetic acid (TCA) solution was added to each microtube while cooled to 4° C., and mixed in a vortex mixer to terminate the reaction. The resultant was left standing at 4° C. for 10 minutes and then centrifuged, and the supernatant was discarded. Next, a 2% aqueous trichloroacetic acid (TCA) solution was added thereto, mixed in vortex mixer, and then centrifuged, and the supernatant was discarded. This washing operation was performed twice. After the washing, precipitates were dissolved in a 1 N aqueous sodium hydroxide (NaOH) solution, and the energy quantity (radioactivity) of the reaction product was measured with a liquid scintillation counter.
The calculation of the inhibitory activity of the test compound against CDK2 was performed as a test compound concentration inhibiting 50% of the amount of ^33P bound to MBP (IC50 value) by using EXSUS (version 8.1.0, manufactured by CAC Exicare Corp.).
as §2

[1] = system: human large intestine cancer cell line (HCT-116); experiment: Human large intestine cancer (HCT-116) cell growth inhibition test; type: cell-based; conditions: HCT-116, 72 h, culture for 3 days, sulforhodamine B, read-out: GI50 value, HCT-116 cell growth inhibition
Procedure: The measurement of a human large intestine cancer cell growth inhibitory effect was carried out by modifying the method of Simak et al. (Cancer Research, 69, 6208 (2009)).
A human large intestine cancer cell line (HCT-116, obtained from DS Pharma Biomedical Co., Ltd.) was cultured in a McCoy's 5A medium (manufactured by Thermo Fisher Scientific, Inc.) containing 10% fetal bovine serum (FBS) (manufactured by Thermo Fisher Scientific, Inc.) and 1% penicillin/streptomycin/amphotericin B (manufactured by Thermo Fisher Scientific, Inc.) and inoculated at 0.5 to 2.0×10^3 cells/well in a 96-well plate. After overnight culture in a carbon dioxide incubator, the medium was replaced with a fresh medium on the next day, and a test compound dissolved in DMSO (final DMSO concentration: 0.1%) was added thereto and left standing in a carbon dioxide incubator. After culture for 3 days, the absorbance thereof was measured by using In Vitro Toxicology Assay Kit Sulforhodamine B based (manufactured by Sigma-Aldrich Co. LLC.).
The rate of inhibition of cell growth at each concentration was calculated from the test compound concentration and the absorbance of sulforhodamine B, and the concentration of the test compound necessary for inhibiting 50% of cell growth (GI50 value) was calculated by using EXSUS (version 8.1.0, manufactured by CAC Exicare Corp.).

PLK1 = target: T3, PLK1 (Homo sapiens, UniProt P53350); experiment: PLK1 enzyme (polo-like kinase) inhibition test; type: biochemical; conditions: [γ-33P]ATP, casein substrate; Ki=IC50/(1+S/Km); read-out: Ki value of PLK1 inhibitory activity
T3 construct: purchased Carna Biosciences, Inc. 05-157
Procedure: The preparation of a buffer solution was performed by mixing a 3-morpholinopropanesulfonic acid buffer solution (MOPS buffer solution) (pH 7.0), dithiothreitol (DTT), and magnesium acetate (Mg(CH3COO)2). A 1 mM [γ-^33P]ATP solution was used by diluting a 10 mM ATP solution and a commercially available [γ-^33P]ATP solution (manufactured by Perkin Elmer, Inc., Code No. NEG-302H) with the buffer solution. A PLK1 solution was used by diluting commercially available PLK1 (manufactured by Carna Biosciences, Inc., Catalog No. 05-157) with the buffer solution. A substrate solution was used by diluting casein with the buffer solution. As for the preparation of a reaction solution, the buffer solution, the 500 μM [γ-^33P]ATP solution, the PLK1 solution, and the substrate solution were mixed at 4° C. to obtain a reaction solution.
as §3, with “PLK1 enzyme reaction” for “CDK2 enzyme reaction”, “mixed in a vortex mixer,” for “mixed in vortex mixer,”
The calculation of the inhibitory activity of the test compound against PLK1 was performed as a test compound concentration inhibiting 50% of the amount of ^33P bound to casein (IC50 value) by using EXSUS (version 8.1.0, manufactured by CAC Exicare Corp.).
as §2

T3 sequence (P53350 whole entry): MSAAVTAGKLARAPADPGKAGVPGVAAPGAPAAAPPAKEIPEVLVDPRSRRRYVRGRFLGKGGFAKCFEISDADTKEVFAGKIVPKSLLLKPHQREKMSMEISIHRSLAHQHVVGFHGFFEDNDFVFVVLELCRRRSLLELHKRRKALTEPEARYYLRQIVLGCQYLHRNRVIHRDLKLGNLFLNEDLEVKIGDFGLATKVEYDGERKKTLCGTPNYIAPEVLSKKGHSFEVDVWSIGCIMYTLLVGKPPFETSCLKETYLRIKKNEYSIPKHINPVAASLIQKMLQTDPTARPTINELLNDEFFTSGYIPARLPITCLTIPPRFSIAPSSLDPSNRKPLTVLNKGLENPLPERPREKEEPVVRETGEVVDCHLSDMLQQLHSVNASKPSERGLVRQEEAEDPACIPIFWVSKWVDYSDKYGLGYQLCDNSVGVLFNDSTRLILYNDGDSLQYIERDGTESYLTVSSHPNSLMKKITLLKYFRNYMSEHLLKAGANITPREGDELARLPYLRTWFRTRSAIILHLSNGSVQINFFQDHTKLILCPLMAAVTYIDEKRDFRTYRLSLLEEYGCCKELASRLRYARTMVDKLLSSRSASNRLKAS
T1 sequence (P50613 whole entry): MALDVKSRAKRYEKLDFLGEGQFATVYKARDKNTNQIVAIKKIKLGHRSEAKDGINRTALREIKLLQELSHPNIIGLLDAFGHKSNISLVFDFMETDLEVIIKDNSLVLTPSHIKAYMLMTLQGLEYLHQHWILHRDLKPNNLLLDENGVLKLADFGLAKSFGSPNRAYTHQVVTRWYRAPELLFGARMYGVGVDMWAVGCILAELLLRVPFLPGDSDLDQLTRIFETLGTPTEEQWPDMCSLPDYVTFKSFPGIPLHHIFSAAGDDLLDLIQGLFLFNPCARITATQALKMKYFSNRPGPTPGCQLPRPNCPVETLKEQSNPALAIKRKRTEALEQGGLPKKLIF
T1 sequence (P51946 whole entry partner): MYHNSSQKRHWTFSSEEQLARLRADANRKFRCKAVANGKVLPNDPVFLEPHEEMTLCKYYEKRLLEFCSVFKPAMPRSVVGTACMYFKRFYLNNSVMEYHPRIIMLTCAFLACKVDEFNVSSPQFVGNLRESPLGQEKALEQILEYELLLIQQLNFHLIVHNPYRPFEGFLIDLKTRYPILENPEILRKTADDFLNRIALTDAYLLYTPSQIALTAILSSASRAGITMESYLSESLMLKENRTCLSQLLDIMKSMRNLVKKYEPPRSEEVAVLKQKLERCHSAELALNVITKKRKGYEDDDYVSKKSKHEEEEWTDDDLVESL
T1 sequence (P51948 whole entry partner): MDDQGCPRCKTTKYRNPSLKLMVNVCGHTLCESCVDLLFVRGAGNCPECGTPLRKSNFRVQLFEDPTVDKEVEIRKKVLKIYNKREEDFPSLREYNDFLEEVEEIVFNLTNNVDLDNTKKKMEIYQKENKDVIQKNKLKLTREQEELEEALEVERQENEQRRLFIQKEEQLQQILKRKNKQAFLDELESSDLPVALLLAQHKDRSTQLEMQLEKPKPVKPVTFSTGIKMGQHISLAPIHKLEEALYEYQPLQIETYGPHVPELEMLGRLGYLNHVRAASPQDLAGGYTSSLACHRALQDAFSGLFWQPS

Row | SMILES | Ki (CDK7) [nM] | Ki (CDK2) [nM] | GI50 [1] [nM] | Ki (PLK1) [nM]
1 | CC1(C)c2[nH]nc(NC(=O)C3([Si](C)(C)C)CCC3)c2CN1C(=O)Nc1ccccc1Cl [IV-9, N-(2-Chlorophenyl)-6,6-dimethyl-3-[1-(trimethylsilyl)cyclobutanecarboxamido]-4,6-dihydropyrrolo[3,4-c]pyrazole-5(1H)-carboxamide] | ≤ 50 | ≥ 1000 | ≤ 100 | –
2 | CC1(C)c2[nH]nc(NC(=O)C3([Si](C)(C)C)CCC3)c2CN1C(=O)Nc1c(F)cccc1C(F)(F)F [IV-153, N-[2-Fluoro-6-(trifluoromethyl)phenyl]-6,6-dimethyl-3-[1-(trimethylsilyl)cyclobutanecarboxamido]-4,6-dihydropyrrolo[3,4-c]pyrazole-5(1H)-carboxamide] | ≤ 50 | – | ≤ 100 | ≥ 5000
3 | CC1(C)c2[nH]nc(NC(=O)C3([Si](C)(C)C)CCC3)c2CN1C(=O)Nc1ccc(F)cc1 [IV-7, N-(4-Fluorophenyl)-6,6-dimethyl-3-[1-(trimethylsilyl)cyclobutanecarboxamido]-4,6-dihydropyrrolo[3,4-c]pyrazole-5(1H)-carboxamide] | ≤ 50 | – | ≤ 100 | –
4 | CC1(C)c2[nH]nc(NC(=O)C3([Si](C)(C)C)CCC3)c2CN1C(=O)Nc1cc(Cl)ccc1F [IV-111, N-(5-Chloro-2-fluorophenyl)-6,6-dimethyl-3-[1-(trimethylsilyl)cyclobutanecarboxamido]-4,6-dihydropyrrolo[3,4-c]pyrazole-5 (1H)-carboxamide] | ≤ 50 | – | ≤ 100 | –
5 | CC1(C)c2[nH]nc(NC(=O)C3([Si](C)(C)C)CCC3)c2CN1C(=O)Nc1ccccc1C#N [IV-63, N-(2-Cyanophenyl)-6,6-dimethyl-3-[1-(trimethylsilyl)cyclobutanecarboxamido]-4,6-dihydropyrrolo[3,4-c]pyrazole-5(1H)-carboxamide] | ≤ 50 | – | ≤ 100 | –
6 | CC1(C)c2[nH]nc(NC(=O)C3([Si](C)(C)C)CCC3)c2CN1C(=O)Nc1c(F)cc(F)cc1F [IV-599, 6,6-Dimethyl-N-(2,4,6-trifluorophenyl)-3-[1-(trimethylsilyl)cyclobutanecarboxamido]-4,6-dihydropyrrolo[3,4-c]pyrazole-5(1H)-carboxamide] | ≤ 50 | – | ≤ 100 | –
7 | CC1(C)c2[nH]nc(NC(=O)C3([Si](C)(C)C)CCC3)c2CN1C(=O)Nc1ccccc1C(F)(F)F [IV-51, 6,6-Dimethyl-N-[2-(trifluoromethyl)phenyl]-3-[1-(trimethylsilyl)cyclobutanecarboxamido]-4,6-dihydropyrrolo[3,4-c]pyrazole-5 (1H)-carboxamide] | ≤ 50 | – | ≤ 100 | –

The remaining lines, values ahead:

Row | Ki (CDK7) [nM] | Ki (CDK2) [nM] | GI50 [1] [nM] | Ki (PLK1) [nM] | SMILES
8 | – | ≥ 1000 | – | ≥ 5000 | CC1(C)c2[nH]nc(NC(=O)C3([Si](C)(C)C)CCC3)c2CN1C(=O)N1CCc2ccccc21 [I-1000, N-[5-(Indoline-1-carbonyl)-6,6-dimethyl-1,4,5,6-tetrahydropyrrolo[3,4-c]pyrazol-3-yl]-1-(trimethylsilyl)cyclobutanecarboxamide]
9 | ≤ 50 | ≥ 1000 | ≤ 100 | – | COc1ccccc1NC(=O)N1Cc2c(NC(=O)C3([Si](C)(C)C)CCC3)n[nH]c2C1(C)C [IV-75, N-(2-Methoxyphenyl)-6,6-dimethyl-3-[1-(trimethylsilyl)cyclobutanecarboxamido]-4,6-dihydropyrrolo[3,4-c]pyrazole-5(1H)-carboxamide]
10 | ≤ 50 | – | ≤ 100 | – | COc1ccc(NC(=O)N2Cc3c(NC(=O)C4([Si](C)(C)C)CCC4)n[nH]c3C2(C)C)cc1 [IV-79, N-(4-Methoxyphenyl)-6,6-dimethyl-3-[1-(trimethylsilyl)cyclobutanecarboxamido]-4,6-dihydropyrrolo[3,4-c]pyrazole-5(1H)-carboxamide]
11 | ≤ 50 | – | ≤ 100 | – | CC1(C)c2[nH]nc(NC(=O)C3([Si](C)(C)C)CCC3)c2CN1C(=O)Nc1cccc(F)c1F [IV-99, N-(2,3-Difluorophenyl)-6,6-dimethyl-3-[1-(trimethylsilyl)cyclobutanecarboxamido]-4,6-dihydropyrrolo[3,4-c]pyrazole-5(1H)-carboxamide]
12 | – | ≥ 1000 | – | ≥ 5000 | CC1(C)c2[nH]nc(NC(=O)C3([Si](C)(C)C)CCC3)c2CN1C(=O)N1CCOc2ccccc21 [I-1036, N-[5-(3,4-Dihydro-2H-benz[b][1,4]oxazine-4-carbonyl)-6,6-dimethyl-1,4,5,6-tetrahydropyrrolo[3,4-c]pyrazol-3-yl]-1-(trimethylsilyl)cyclobutanecarboxamide]
